Experiments:
[1] = test system: parent elite stiff stalk inbred corn; test: Postemergence herbicide application in greenhouse: fresh shoot weight and visual injury; assay type: in vivo
[2] = test system: STS ® soybeans; test: Postemergence herbicide treatment of soybeans in greenhouse, visual injury; assay type: in vivo, soybean
Description: When possible, containers were thinned to two uniform plants.

[3] = test system: Untransformed Coker 312 cotton; test: Greenhouse over the top herbicide spray of cotton; assay type: in vivo, Gossypium hirsutum; conditions: glyphosate 1.5 lb ae/acre, 2 weeks after application; rimsulfuron 16 g active ingredient/hectare without glyphosate
Description: (§1) Transformed cotton plants were rooted and then transferred to soil for further growth. Plants were then subjected to herbicide spray treatments in a greenhouse. […] Untransformed Coker 312 control plants were dead 2 weeks after glyphosate application. […] Plants transformed with both GAT and HRA were further subjected to an “over the top” application of the sulfonylurea herbicide rimsulfuron at a rate of 16 g active ingredient/hectare. […] In further experiments 32 g ai/ha rimsulfuron were applied to the cotton.

[4] = test system: GAT-HRA transgenic cotton plants; test: Greenhouse over the top herbicide spray of cotton; assay type: in vivo, Gossypium hirsutum; conditions: glyphosate 1.5 lb acid equivalent per acre at 4-6 leaf stage; 14 days after application
Description: as §1

[5] = test system: non-transformed GS3 embryos; test: Glyphosate kill curve on culture media; assay type: cell-based, maize; conditions: about 40 days culture
Protocol: A glyphosate kill curve was established by testing non-transformed embryos response on media with different levels of glyphosate. GS3 embryos were isolated from an immature ear and placed onto media containing glyphosate at 0.0, 0.5, 1.0, and 2.0 mM. After about 40 days culture, the response of the embryos were observed and recorded. Similarly, infected GS3 embryos with the GAT construct were placed onto media containing glyphosate at 0.0, 0.5, 1.0, and 2.0 mM. After about 40 days culture, the response of the infected embryos were observed and recorded (FIG. 7).

[6] = test system: Non-glyphosate resistant Conyza (Welgevallen-paraquat resistant); test: Control of hairy fleabane by glyphosate, metsulfuron-methyl and two additives; assay type: in vivo, Conyza bonariensis; conditions: glyphosate on its own; 10-15 leaf stage
Protocol: This example included the same treatments as used in Example 11, except the treatments were carried out on a glyphosate sensitive biotype of Kleinskraalhans (Conyza bonariensis). […] In this example, however, ammonium sulfate-based adjuvant (ADD-UP®) preformed better than bispyribac-sodium (VELOCITY®) with the mixture.
• Biotype: Non-glyphosate resistant Conyza (Welgevallen-paraquat resistant) • Growth Stage: 10-15 leaf stage • Condtions: Cool and sunny • Volume rate: 200 L ha^−1 • glyphosate (ROUNDUP): 360 g a.i. L^−1

[7] = test system: Heterozygous GAT-HRA corn; test: Postemergence herbicide application in greenhouse: fresh shoot weight and visual injury; assay type: in vivo
[8] = test system: Wild Type soybeans (Jack); test: Postemergence herbicide treatment of soybeans in greenhouse, visual injury; assay type: in vivo, soybean; conditions: postemergence, glyphosate 8960, tribenuron-methyl 35, rimsulfuron 35 g/ha
Protocol: (§2) Young regenerated transgenic plants were sprayed with 1× glyphosate (1× rate of glyphosate is 1120 g/ha of glyphosate isopropylamine) to cull segregants. Four replications were performed for each treatment. Plants were then treated with various herbicides, including glyphosate and ALS-inhibitor herbicides.
(§3) Six soybean seeds from each variety to be assayed were planted 1 cm deep in 5.5 (13.97 cm) inch square plastic container of a synthetic growth medium. […] When possible, containers were thinned to two uniform plants. Non-transgenic lines were thinned to two uniform plants per container.
(§4) Results are expressed below in Table 11 as the mean of four replications.

[9] = test system: GAT-HRA soybeans; test: as above; assay type: in vivo, soybean; conditions: postemergence, glyphosate 8960, tribenuron-methyl 35, rimsulfuron 35 g/ha
Protocol: as §2, §3, §4

[10] = Zea mays, post-emergence, […], read-out: % Visual Injury

O=C(O)CNCP(=O)(O)O [Glyphosate, N-phosphonomethylglycine]
pest or weed control at 200 g/ha [1, 10]: 100%
Fresh Weight ([1]; postemergence, 200 g/ha (glyphosate 3472 g ae/ha, glufosinate ammonium 1870 g/ha), weighed 2 weeks after treatment, mean of four replications, untreated 76.4 g): 1.0 g
% Visual Injury ([2]; STS ® line 25, glyphosate 8960, tribenuron-methyl 35, rimsulfuron 35 g/ha): 100%
% Visual Injury ([2]; STS ® line 46, glyphosate 8960, tribenuron-methyl 35, rimsulfuron 35 g/ha): 100%
% Visual Injury ([2]; STS ®, mean, glyphosate 8960, tribenuron-methyl 35, rimsulfuron 35 g/ha): 100%
damage to untransformed control plants [3]: dead
transgenic plants showing no deleterious symptoms [4]: approximately 50%
callus growth of embryos ([5]; media containing 1.0 and 2.0 mM glyphosate): very little callus growth
embryos showing callus initiation ([5]; medium with 0.5 mM glyphosate): about half
plants killed [6]: 1 out of 16
plants killed, percentage in brackets [6]: 12%
pest or weed control at 200 g/ha [7, 10]: 10%
Fresh Weight ([7]; postemergence, 200 g/ha (glyphosate 3472 g ae/ha, glufosinate ammonium 1870 g/ha), weighed 2 weeks after treatment, mean of four replications, untreated 98.8 g): 97.4 g
% Visual Injury ([8]; Wild Type line 82): 100%
% Visual Injury ([8]; Wild Type line Jack): 100%
% Visual Injury ([8]; Wild Type, mean): 100%
% Visual Injury ([9]; event 59, mean): 38%
% Visual Injury ([9]; event 59 line 21): 40%
% Visual Injury ([9]; event 59 line 28): 37%
% Visual Injury ([9]; event 60, mean): 15%
% Visual Injury ([9]; event 60 line 07): 19%
% Visual Injury ([9]; event 60 line 11): 11%
% Visual Injury ([9]; event 60 line 22): 11%
% Visual Injury ([9]; event 60 line 35): 9%
% Visual Injury ([9]; event 60 line 41): 13%
% Visual Injury ([9]; event 60 line 46): 20%
% Visual Injury ([9]; event 60 line 70): 9%
% Visual Injury ([9]; event 60 line 75): 14%
% Visual Injury ([9]; event 60 line 77): 19%
% Visual Injury ([9]; event 60 line 79): 18%
% Visual Injury ([9]; event 60 line 82): 20%
% Visual Injury ([9]; event 60 line 84): 22%
% Visual Injury ([9]; event 61, mean): 20%
% Visual Injury ([9]; event 61 line 02): 10%
% Visual Injury ([9]; event 61 line 02B): 10%
% Visual Injury ([9]; event 61 line 05): 11%
% Visual Injury ([9]; event 61 line 14): 10%
% Visual Injury ([9]; event 61 line 18): 10%
% Visual Injury ([9]; event 61 line 24): 60%
% Visual Injury ([9]; event 61 line 33): 84%
% Visual Injury ([9]; event 61 line 34): 23%
% Visual Injury ([9]; event 61 line 47): 15%
% Visual Injury ([9]; event 61 line 49): 9%
% Visual Injury ([9]; event 61 line 51): 10%
% Visual Injury ([9]; event 61 line 60): 16%
% Visual Injury ([9]; event 61 line 62): 6%
% Visual Injury ([9]; event 61 line 99): 10%
% Visual Injury ([9]; event 64, mean): 14%
% Visual Injury ([9]; event 64 line 41): 20%
% Visual Injury ([9]; event 64 line 47): 10%
